Test results: patent US9340493B2, “Hydroxamic acid derivatives useful as antibacterial agents” (Pfizer Inc., priority 2008, dated 2016)
≈ marks a conversion by molar mass, not a printed value.

Experiments:
P. aeruginosa UI-18 = experiment: MIC determination, P. aeruginosa UI-18; assay type: cell-based; details: Pseudomonas aeruginosa, UI18; wild-type; * = arithmetic mean of 2-6 MIC determinations; read-out: MIC (ug/mL) P. aeruginosa UI-18
Procedure: (§1) MIC determinations: The in vitro antibacterial activity of compounds described in the Examples was evaluated by minimum inhibitory concentration (MIC) testing according to Clinical and Laboratory Standards Institute (CLSI, formerly NCCLS) guidelines. See: Clinical and Laboratory Standards Institute. Methods for Dilution Antimicrobial Susceptibility Tests for Bacteria that Grow Aerobically; Approved Standard-Seventh Edition. CLSI document M7-A7 [ISBN 1-56238-587-9]. Clinical and Laboratory Standards Institute, 940 West Valley Road, Suite 1400, Wayne, Pa. 19087-1898 USA, 2006; also Clinical and Laboratory Standards Institute. Performance Standards for Antimicrobial Susceptibility Testing; Eighteenth Informational Supplement. CLSI document M100-S18 [ISBN1-56238-653-0]. Clinical and Laboratory Standards Institute.
(§2) The following bacterial strains were used:
P. aeruginosa UI-18: Wild-type;

P. aeruginosa PAO280 = experiment: MIC determination, P. aeruginosa PAO280; assay type: cell-based; details: Pseudomonas aeruginosa, PAO280, read-out: MIC (ug/mL) P. aeruginosa PAO280
Procedure: as §1, §2
Pseudomonas aeruginosa PA0280: lacks efflux pumps MexAB-oprM, MexXY and MexZ

[1] = target: T1, Pseudomonas aeruginosa LpxC enzyme (Pseudomonas aeruginosa, UniProt P47205); experiment: IC50 assay, LpxC enzyme from P. aeruginosa; assay type: biochemical; details: 0.5 nM enzyme, 25° C., pH 8.0, 20 min; ** = average of 2-8 assays
T1 construct: made in house; host or cells: E. coli
T1 sequence (P47205 1-303): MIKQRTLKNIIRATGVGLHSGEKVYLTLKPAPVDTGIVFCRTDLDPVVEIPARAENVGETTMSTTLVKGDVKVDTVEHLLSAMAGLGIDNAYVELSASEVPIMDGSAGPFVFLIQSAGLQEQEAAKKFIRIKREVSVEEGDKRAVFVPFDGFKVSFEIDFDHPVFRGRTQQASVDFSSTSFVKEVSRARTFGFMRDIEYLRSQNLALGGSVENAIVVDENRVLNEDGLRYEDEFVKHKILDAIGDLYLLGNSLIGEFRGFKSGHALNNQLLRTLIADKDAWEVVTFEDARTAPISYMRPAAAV
Procedure: IC50 assay, LpxC enzyme from P. aeruginosa: IC50 determination in the LpxC enzyme assay was carried out in a similar manner to that described by S. A. Hyland et al., J. Bacteriology 1997, 179, 2029-2037. [See also T. Kline et al., J. Medicinal Chemistry 2002, 45, 3112-3129.] Briefly, Pseudomonas aeruginosa LpxC enzyme (0.5 nM) purified from E. coli-overexpressing bacteria was incubated at 25° C. in a final volume of 25 ul containing 0.5 uM UDP-3-O—(R-3-hydroxydecanoyl)-N—[^3H-acetyl]glucosamine (B. D. Maxwell and J. C. Bronstein, J. Labeled Compounds and Radiopharmaceuticals 2005, 48, 1049-1054), 1 mg/ml BSA, and 50 mM sodium phosphate buffer, pH 8.0 in the presence and absence of inhibitor compound. At the end of 20 min, 90 ul of a pre-mixed 3% suspension of activated charcoal in 100 mM sodium acetate, pH 7.5, was added to stop the enzyme reaction. The contents of the well were transferred to a filter plate and filtered, and an aliquot of the filtrate was quantitated by liquid scintillation spectrometry. A no-enzyme control was subtracted in order to eliminate background counts.

[2] = system: Staphylococcus aureus ATCC 29213; experiment: MIC determination, S. aureus ATCC 29213; assay type: cell-based; details: ATCC29213, CLSI quality control reference strain, * = arithmetic mean of 2-6 MIC determinations, read-out: MIC (ug/mL) S. aureus ATCC 29213
Procedure: as §1, §2
Staphylococcus aureus ATCC 29213: CLSI quality control reference strain; and […]

Klebsiella pneumoniae = experiment: MIC determination, K. pneumoniae; assay type: cell-based; details: ciprofloxacin-resistant, ESBL-expressing clinical isolate, * = arithmetic mean of 2-6 MIC determinations, read-out: MIC (ug/mL) K. pneumoniae
Procedure: as §1, §2
Klebsiella pneumoniae: Ciprofloxacin-resistant isolate, expresses extended-spectrum beta-lactamases (ESBL), clinical isolate;

Escherichia coli EC-1 = experiment: MIC determination, E. coli EC-1; assay type: cell-based; details: EC1, EC-1: VOGEL, * = arithmetic mean of 2-6 MIC determinations, read-out: MIC (ug/mL) E. coli EC-1
Procedure: as §1, §2
Escherichia coli EC-1: VOGEL;

[3] = system: Acinetobacter baumanii/haemolyticus; experiment: MIC determination, A. baumanii/haemolyticus; assay type: cell-based; details: Acinetobacter baumannii; multidrug-resistant clinical isolate; * = arithmetic mean of 2-6 MIC determinations; read-out: MIC (ug/mL) A. baumanii/haemolyticus
Procedure: as §1, §2
Acinetobacter baumanii/haemolyticus: Multidrug-resistant clinical isolate;

Enterobacter aerogenes = experiment: MIC determination, E. aerogenes; assay type: cell-based; details: Klebsiella aerogenes; quinolone-resistant, ESBL-expressing clinical isolate; * = arithmetic mean of 2-6 MIC determinations; read-out: MIC (ug/mL) E. aerogenes
Procedure: as §1, §2
Enterobacter aerogenes: Quinolone-resistant isolate, expresses extended-spectrum beta-lactamases (ESBL), clinical isolate;

| SMILES | MIC (P. aeruginosa UI-18) [µg/mL] | MIC (P. aeruginosa PAO280) [µg/mL] | IC50 [1] [µM] | MIC [2] [µg/mL] | MIC (Klebsiella pneumoniae) [µg/mL] | MIC (Escherichia coli EC-1) [µg/mL] | MIC [3] [µg/mL] | MIC (Enterobacter aerogenes) [µg/mL] |
| --- | --- | --- | --- | --- | --- | --- | --- | --- |
| CC(=O)NCCNC(=O)C(C)(OCc1ccc(-c2ccccc2)cc1)C(=O)NO (centres unmarked) [Example 77, N-(2-acetamidoethyl)-2-(biphenyl-4-ylmethoxy)-N′-hydroxy-2-methylmalonamide] | 64 (≈ 160 µM) | 1 (≈ 2.5 µM) | 0.00612 | > 64 | – | – | – | – |
| CC(OCc1ccc(-c2ccccc2)cc1)(C(=O)NO)C(=O)NCCc1cscn1 (centres unmarked) [Example 76, 2-(biphenyl-4-ylmethoxy)-N-hydroxy-2-methyl-N′-[2-(1,3-thiazol-4-yl)ethyl]malonamide] | 64 (≈ 150 µM) | 0.5 (≈ 1.18 µM) | 0.00848 | > 64 | – | – | – | – |
| CC(CO)(OCc1ccc(-c2ccc(-c3csnn3)cc2)cc1)C(=O)NO (centres unmarked) [Example 59, N,3-dihydroxy-2-methyl-2-{[4′-(1,2,3-thiadiazol-4-yl)biphenyl-4-yl]methoxy}propanamide] | > 64 | 1 (≈ 2.59 µM) | 0.00402 | > 64 | – | – | – | – |
| Cc1cc(F)ccc1-c1ccc(COC(C)(CO)C(=O)NO)cc1 (centres unmarked) [Example 63, 2-[(4′-fluoro-2′-methylbiphenyl-4-yl)methoxy]-N,3-dihydroxy-2-methylpropanamide] | > 64 | 4 (≈ 12 µM) | 0.0174 | > 64 | – | – | – | – |
| CC(OCc1ccc(-c2ccccc2)cc1)(C(=O)NO)C(=O)NC[C@@H]1CCCO1 (stereo partly drawn) [Example 75, 2-(biphenyl-4-ylmethoxy)-N-hydroxy-2-methyl-N′-[(2S)-tetrahydrofuran-2-ylmethyl]malonamide] | 64 (≈ 161 µM) | 1 (≈ 2.51 µM) | 0.0126 | > 64 | – | – | – | – |
| Cc1nnc(CCNC(=O)C(C)(OCc2ccc(-c3ccccc3)cc2)C(=O)NO)[nH]1 (centres unmarked) [Example 79, 2-(biphenyl-4-ylmethoxy)-N-hydroxy-2-methyl-N′-[2-(5-methyl-4H-1,2,4-triazol-3-yl)ethyl]malonamide] | 64 (≈ 151 µM) | 1 (≈ 2.36 µM) | 0.00288 | > 64 | – | – | – | – |
| Cc1ncsc1CCNC(=O)C(C)(OCc1ccc(-c2ccccc2)cc1)C(=O)NO (centres unmarked) [Example 80, 2-(biphenyl-4-ylmethoxy)-N-hydroxy-2-methyl-N′-[2-(4-methyl-1,3-thiazol-5-yl)ethyl]malonamide] | 64 (≈ 146 µM) | 0.5 (≈ 1.14 µM) | 0.00899 | > 64 | – | – | – | – |
| COCCNC(=O)C(C)(OCc1ccc(-c2ccccc2)cc1)C(=O)NO (centres unmarked) [Example 74, 2-(biphenyl-4-ylmethoxy)-N-hydroxy-N′-(2-methoxyethyl)-2-methylmalonamide] | 64 (≈ 172 µM) | 1 (≈ 2.69 µM) | 0.0139 | > 64 | – | – | – | – |
| CNC(=O)C(C)(OCc1ccc(-c2ccccc2)cc1)C(=O)NO (centres unmarked) [Example 93, 2-(biphenyl-4-ylmethoxy)-N-hydroxy-N′,2-dimethylmalonamide] | 8 (≈ 24.4 µM) | 0.125 (≈ 0.381 µM) | – | > 64 | 64 (≈ 195 µM) | 32 (≈ 97.5 µM) | > 64 | > 64 |
| CC(OCc1ccc(-c2ccccc2)cc1)(C(=O)NO)C(=O)NCC1(O)CCCC1 (centres unmarked) [Example 68, 2-(biphenyl-4-ylmethoxy)-N-hydroxy-N′-[(1-hydroxycyclopentyl)methyl]-2-methylmalonamide] | > 64 | 4 (≈ 9.7 µM) | 0.0955 | > 64 | – | – | – | – |
| CN(C)S(=O)(=O)c1ccc(-c2ccc(COC(C)(CO)C(=O)NO)cc2)cc1 (centres unmarked) [Example 61, 2-({4′-[(dimethylamino)sulfonyl]biphenyl-4-yl}methoxy)-N,3-dihydroxy-2-methylpropanamide] | > 64 | 16 (≈ 39.2 µM) | 0.0602 | > 64 | – | – | – | – |
| CC(OCc1ccc(-c2ccccc2)cc1)(C(=O)NO)C(=O)NCCO (centres unmarked) [Example 81, 2-(biphenyl-4-ylmethoxy)-N-hydroxy-N′-(2-hydroxyethyl)-2-methylmalonamide] | 64 (≈ 179 µM) | 1 (≈ 2.79 µM) | 0.0261 | > 64 | – | – | – | – |
| C[C@@](OCc1ccc(-c2ccccc2)cc1)(C(=O)NO)[C@@H](O)c1cc(COP(=O)(O)O)on1 [Example 47, trisodium {3-[(1S,2S)-2-(biphenyl-4-ylmethoxy)-1-hydroxy-2-methyl-3-(oxidoamino)-3-oxopropyl]isoxazol-5-yl}methyl phosphate] | – | – | 0.00565 | – | – | – | – | – |
| CC(CO)(OCc1ccc(-c2cccc(F)c2)cc1)C(=O)NO (centres unmarked) [Example 64, 2-[(3′-fluorobiphenyl-4-yl)methoxy]-N,3-dihydroxy-2-methylpropanamide] | > 64 | 4 (≈ 12.5 µM) | 0.00757 | > 64 | – | – | – | – |
| Cc1ccc(CNC(=O)C(C)(OCc2ccc(-c3ccccc3)cc2)C(=O)NO)cc1 (centres unmarked) [Example 72, 2-(biphenyl-4-ylmethoxy)-N-hydroxy-2-methyl-N′-(4-methylbenzyl)malonamide] | > 16 | 4 (≈ 9.56 µM) | 0.0307 | > 16 | – | – | – | – |
| CCN1CC(CNC(=O)C(C)(OCc2ccc(-c3ccccc3)cc2)C(=O)NO)CC1=O (centres unmarked) [Example 82, 2-(biphenyl-4-ylmethoxy)-N-[(1-ethyl-5-oxopyrrolidin-3-yl)methyl]-N′-hydroxy-2-methylmalonamide] | > 64 | 4 (≈ 9.1 µM) | 0.0486 | > 64 | – | – | – | – |
| CC(CO)(OCc1ccc(-c2ccc(C3=NNC(=O)CC3)cc2)cc1)C(=O)NO (centres unmarked) [Example 60, N,3-dihydroxy-2-methyl-2-{[4′-(6-oxo-1,4,5,6-tetrahydropyridazin-3-yl)biphenyl-4-yl]methoxy}propanamide] | > 64 | 4 (≈ 10.1 µM) | 0.0105 | > 64 | – | – | – | – |
| COc1cccc(-c2ccc(COC(C)(CO)C(=O)NO)cc2)c1F (centres unmarked) [Example 65, 2-[(2′-fluoro-3′-methoxybiphenyl-4-yl)methoxy]-N,3-dihydroxy-2-methylpropanamide] | 64 (≈ 183 µM) | 1 (≈ 2.86 µM) | 0.00579 | > 64 | – | – | – | – |
| Cn1cc(CCNC(=O)C(C)(OCc2ccc(-c3ccccc3)cc2)C(=O)NO)cn1 (centres unmarked) [Example 73, 2-(biphenyl-4-ylmethoxy)-N-hydroxy-2-methyl-N′-[2-(1-methyl-1H-pyrazol-4-yl)ethyl]malonamide] | > 64 | 1 (≈ 2.37 µM) | 0.0156 | > 64 | – | – | – | – |
| Cc1n[nH]c(C)c1CNC(=O)C(C)(OCc1ccc(-c2ccccc2)cc1)C(=O)NO (centres unmarked) [Example 78, 2-(biphenyl-4-ylmethoxy)-N-[(3,5-dimethyl-1H-pyrazol-4-yl)methyl]-N′-hydroxy-2-methylmalonamide] | 64 (≈ 151 µM) | 1 (≈ 2.37 µM) | 0.0055 | > 64 | – | – | – | – |
